The values that follow come from US6737256B2, “Overcoming DAPA aminotransferase bottlenecks in biotin vitamers biosynthesis” (Roche Vitamins Inc., priority 1997, dated 2004).

Where two headings read alike, the source gives them in different places.

The target in assay [1] is T1, B. subtilis DAPA aminotransferase (Bacillus subtilis, UniProt P53555).
T1 construct: A cell free extract prepared from a B. subtilis strain deleted for the bio operon but containing multiple copies (4-6) of the B. subtilis bioA gene; made in house; host or cells: B. subtilis BI611 (Δbio:cat, bpr:[P26bioA]4-6), cell-free extract (dialyzed for A1, crude for A2)
T1 sequence (P53555 1-448): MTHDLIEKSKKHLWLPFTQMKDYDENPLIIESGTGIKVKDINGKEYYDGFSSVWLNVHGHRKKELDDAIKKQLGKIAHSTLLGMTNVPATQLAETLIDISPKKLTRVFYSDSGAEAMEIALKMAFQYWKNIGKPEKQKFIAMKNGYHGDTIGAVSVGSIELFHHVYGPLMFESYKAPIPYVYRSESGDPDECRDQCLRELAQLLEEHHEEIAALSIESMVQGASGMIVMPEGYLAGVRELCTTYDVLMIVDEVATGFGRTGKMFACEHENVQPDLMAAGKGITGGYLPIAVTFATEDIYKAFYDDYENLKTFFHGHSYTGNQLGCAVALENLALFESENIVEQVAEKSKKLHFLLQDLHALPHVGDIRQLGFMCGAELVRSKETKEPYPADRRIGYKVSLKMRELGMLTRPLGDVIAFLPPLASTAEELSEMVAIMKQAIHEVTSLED
The class given is biochemical. As to conditions: for DAPA aminotransferase specfic activity: compound added to extract of BI611; for function as amino donor with the B. subtilis enzyme / stimulation of DAPA aminotransferase activity: result in words; for stimulation of DAPA aminotransferase activity: dialyzed BI611 extract. As to the method: The assay for DAPA aminotransferase is described by Eisenberg and Stoner in 1971 (J. Bacteriol. 108:1135-1140). In this assay, the substrate KAPA is incubated with S-adenosylmethionine (SAM) in the presence of the cofactor pyridoxal 5′-phosphate and cell extract. We measured the amount of DAPA produced in a plate bioassay utilizing an E. coli bioA strain. Streptavidin (8 μg/ml) was added to the assay mix because extracts of many of the strains to be assayed contained significant amounts of biotin and dethiobiotin which fed the E. coli indicator strain used in the bioassay. Contamination by trace amounts of biotin and dethiobiotin was also removed from the KAPA preparation used as substrate by passing the material over an avidin-agarose column. The E. coli bioA109 strain (MEC1) was used to measure DAPA aminotransferase activity in the bioassay. […] Eisenberg's DAPA-sensitive strain was obtained from the E. coli Genetic Stock Center at Yale University.
To determine whether B. subtilis DAPA aminotransferase activity could be stimulated by addition of other amino donors to the reaction mix, various amino donors were screened for their ability to stimulate enzyme activity in vitro. A cell free extract prepared from a B. subtilis strain deleted for the bio operon but containing multiple copies (4-6) of the B. subtilis bioA gene transcribed from a phage SP01-26 promoter with the cassette integrated at the bpr locus, BI611 (Δbio:cat, bpr:[P26bioA]4-6), was dialyzed to remove any endogenous levels of the amino donor and the extract was assayed in the presence of each of the standard amino acids and several other amine compounds. […] In a subsequent experiment, various lysine derivatives and analogs were tested for stimulation of activity (Table 2). […] The structure of (S)-2-aminoethyl-L-cysteine is identical to L-lysine except that the γ carbon has been replaced by a sulfur atom.

Assay [2] addresses T1, B. subtilis DAPA aminotransferase. Put plainly: Kinetic studies of B. subtilis DAPA aminotransferase (crude cell-free extract of BI611). The class given is biochemical. As to conditions: for Km: crude cell-free extract of BI611. On the procedure: (§1) The assay for DAPA aminotransferase is described by Eisenberg and Stoner in 1971 (J. Bacteriol. 108:1135-1140). In this assay, the substrate KAPA is incubated with S-adenosylmethionine (SAM) in the presence of the cofactor pyridoxal 5′-phosphate and cell extract. We measured the amount of DAPA produced in a plate bioassay utilizing an E. coli bioA strain. Streptavidin (8 μg/ml) was added to the assay mix because extracts of many of the strains to be assayed contained significant amounts of biotin and dethiobiotin which fed the E. coli indicator strain used in the bioassay. Contamination by trace amounts of biotin and dethiobiotin was also removed from the KAPA preparation used as substrate by passing the material over an avidin-agarose column. The E. coli bioA109 strain (MEC1) was used to measure DAPA aminotransferase activity in the bioassay. This E.coli bioA strain, developed for the assay by Eisenberg, was reported to be many times more sensitive to DAPA than any other bioA mutant. Eisenberg's DAPA-sensitive strain was obtained from the E. coli Genetic Stock Center at Yale University.
The kinetic properties of B. subtilis DAPA aminotransferase were investigated using a crude cell-free extract prepared from BI611 (Δbio:cat, bpr:[P26bioA]4-6). […] The conversion of substrate to product was approximately 10 to 40% in 20 minutes. […] The pH optimum for the transamination reaction was determined to be pH 8.6. […] The […] enzyme was subject to inhibition by KAPA at levels above 20 μM. […] The enzyme became saturated for lysine at concentrations between 20 and 40 mM.
The substrate inhibition of B. subtilis DAPA aminotransferase by KAPA provides evidence for a double displacement or ping-pong reaction mechanism, as has been shown for E.coli DAPA aminotransferase (Stoner et al., J. Biol. Chem. 250:4037-4043, 1975). KAPA concentration was varied at four different fixed lysine concentrations, and initial velocity data was collected and plotted in a double reciprocal form. […]

For assay [3], the target named is T2, E. coli DAPA aminotransferase (Escherichia coli, UniProt P12995). As to conditions: cited from earlier work; for Km: Stoner and Eisenberg 1975.
T2 sequence (P12995 whole entry): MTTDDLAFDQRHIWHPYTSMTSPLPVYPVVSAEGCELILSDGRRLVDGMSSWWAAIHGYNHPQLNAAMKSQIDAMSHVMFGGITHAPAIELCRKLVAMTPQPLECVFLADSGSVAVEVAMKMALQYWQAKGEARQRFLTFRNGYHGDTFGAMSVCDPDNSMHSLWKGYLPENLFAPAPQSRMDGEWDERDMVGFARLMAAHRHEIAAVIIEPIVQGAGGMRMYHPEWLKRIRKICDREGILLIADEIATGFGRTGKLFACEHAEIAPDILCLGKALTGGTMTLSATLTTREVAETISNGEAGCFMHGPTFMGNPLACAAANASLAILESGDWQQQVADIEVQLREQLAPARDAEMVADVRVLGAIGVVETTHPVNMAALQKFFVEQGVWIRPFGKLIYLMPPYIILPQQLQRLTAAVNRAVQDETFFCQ
Assay [4] has as its target T2, E. coli DAPA aminotransferase. The assay is described as follows: DAPA aminotransferase assay of extracts of B. subtilis strains containing E. coli bioA. The class given is biochemical. As to conditions: strains lacking native bioA, with E. coli bioA. On the procedure: as §1
(§2) The enzyme reaction was approximately linear with time for at least 60 minutes. […] Enzyme activity was destroyed by boiling the extract, or freezing and thawing, although freezing the extract in the presence of 10% DMSO appeared to stabilize the enzyme. […]

Assay [5] addresses T1, B. subtilis DAPA aminotransferase. The assay is described as follows: DAPA aminotransferase assay of BI282 extract, dependence on SAM. The assay is classed as biochemical. On the procedure:
as §1
A B. subtilis strain, BI282, engineered to overexpress B. subtilis BioA protein was assayed for DAPA aminotransferase activity: BI282 contains a P15 bio cassette amplified at the bio locus (described in Patent Application 0635572A2). […]

The target in assay [6] is T3, S. marcescens DAPA aminotransferase (Serratia marcescens, UniProt P36568).
T3 construct: made in house; host or cells: B. subtilis strain lacking the native bioA gene, carrying S. marcescens bioA; cell extract
T3 sequence (P36568 whole entry): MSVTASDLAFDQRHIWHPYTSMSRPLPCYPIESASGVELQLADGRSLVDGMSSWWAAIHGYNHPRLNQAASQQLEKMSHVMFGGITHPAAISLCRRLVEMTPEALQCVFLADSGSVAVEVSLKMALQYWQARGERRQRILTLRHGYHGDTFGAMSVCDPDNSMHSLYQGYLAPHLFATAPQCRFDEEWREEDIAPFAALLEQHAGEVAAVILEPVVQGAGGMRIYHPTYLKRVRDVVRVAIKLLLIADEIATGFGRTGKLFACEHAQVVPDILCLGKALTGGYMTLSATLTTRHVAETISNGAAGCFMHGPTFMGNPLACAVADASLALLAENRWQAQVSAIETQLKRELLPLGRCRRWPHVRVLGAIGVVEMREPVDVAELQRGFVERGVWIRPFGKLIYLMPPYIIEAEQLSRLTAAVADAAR
The assay is described as follows: DAPA aminotransferase assay of extracts of B. subtilis strains containing S. marcescens bioA. The class given is biochemical. Particulars: strains lacking native bioA, with S. marcescens bioA. On the procedure:
as §1, §2

The subject of assay [7] is B. subtilis strains, PY79, BI282, and BI603. The assay is described as follows: Sensitivity of B. subtilis strains to lysine analogs on minimal medium. The class given is cell-based. As to conditions: minimal medium with no additive, with threonine, or with DAP plus threonine. As to the method:
Three out of the four classical cases of lysine deregulated mutants were isolated by selecting for lysine analog resistance. B. subtilis strains, PY79 (Youngman et al., Plasmid 12:1-9, 1984), BI282, and BI603 were tested for sensitivity to four lysine analogs, on minimal medium with no additive, with threonine, or with DAP plus threonine. The purpose of the additives was to focus the selection on the lysC gene, that encodes the lysine sensitive aspartokinase II. […] All three strains behaved similarly; all were sensitive to AEC in all three media.

With `NCCCCC(N)C(=O)O` (racemic) [DL-lysine (>98%), DL-lysine], in assay [1], the “DAPA aminotransferase specfic activity” value was determined as 0.35 nmol/min/mg.
In the case of `NCCCC[C@@H](N)C(=O)O` [D-lysine], in assay [1], the “DAPA aminotransferase specfic activity” value was 0.19 nmol/min/mg and the “function as amino donor with the B. subtilis enzyme” value (from here on “function as amino donor”) is listed as “function as amino donors”.
`CC(N)C(=O)CCCCCC(=O)O` (stereo not shown) [KAPA, 8-amino-7-ketopelargonic acid]: the Km in assay [2] (read-out: apparent Km for KAPA) was 1 to 5 µM; in assay [3] (read-out: Km for KAPA) it was 1.2 µM. Moreover, in assay [2] (lysine constant at 19 mM), the “KAPA concentration above which inhibition of activity was observed” value is reported as “above 80 μM”. Moreover, in assay [3] (Eisenberg and Stoner 1971), the “KAPA level above which enzyme was subject to inhibition” value is reported as “above 20 μM”.
On to `NCCCC[C@H](N)C(=O)O` [L-lysine], for which the Km in assay [2] (read-out: apparent Km for lysine) was in the range of 2000 to 25000 µM. The “DAPA aminotransferase specfic activity” value in assay [1] (listed as L-lysine (>98%)) turned out to be 0.76 nmol/min/mg; in assay [1] (listed as L-lysine (>99%)), 0.56 nmol/min/mg. The “function as amino donor” value in assay [1] is given as “function as amino donors”. The “stimulation of DAPA aminotransferase activity” value in assay [1] (listed as L-lysine hydrochloride) is recorded as “stimulated DAPA aminotransferase activity”; in assay [1] (listed as L-lysine(>99% pure)), “stimulate activity”.
On to `CC(=O)N[C@@H](CCCCN)C(=O)O` [Nα-acetyl-L-lysine], for which the “DAPA aminotransferase specfic activity” value in assay [1] was determined as 0 nmol/min/mg.
Same read-out and setting: in the case of `CC(=O)NCCCC[C@H](N)C(=O)O` [Nε-acetyl-L-lysine] it was 0 nmol/min/mg.
Still for that read-out and setting: in the case of `CNCCCC[C@H](N)C(=O)O` [Nε-methyl-L-lysine] it was 0 nmol/min/mg.
As to `C[S+](CC[C@H](N)C(=O)O)C[C@H]1O[C@@H](n2cnc3c(N)ncnc32)[C@H](O)[C@@H]1O` (stereo partly shown) [SAM, S-adenosylmethionine], the “dependence of enzyme activity on presence of SAM” value in assay [4] was “dependent on the presence of exogenous SAM”; in assay [5], “not dependent on the presence of SAM”; in assay [6], “dependent on the presence of exogenous SAM”. Besides, the Km in assay [3] (purified E. coli enzyme, read-out: Km for SAM) was 200 µM. Moreover, the “function as amino donor” value in assay [1] is on record as “not a significant amino donor”.
Consider `N[C@H](CCC[C@H](N)C(=O)O)C(=O)O` [diaminopimelic acid], for which the “DAPA aminotransferase specfic activity” value in assay [1] is 0 nmol/min/mg.
With (S)-2-aminoethyl-L-cysteine, the inhibition of growth entry in assay [7] was “inhibited growth”. Besides, in assay [1], the “DAPA aminotransferase specfic activity” value was determined as 0.48 nmol/min/mg, the “function as amino donor” value was “function as amino donors” and the “stimulation of DAPA aminotransferase activity” value was “stimulate activity”.
Consider gly-lys, for which, in assay [1], the “DAPA aminotransferase specfic activity” value is 0 nmol/min/mg.
Same read-out and setting: as for lys-gly, the figure is 0 nmol/min/mg.
